This is an account of results in US11647993B2, “Oral fluid collector” (Research Triangle Institute, priority 2017, dated 2023).

Where two headings read alike, the source gives them in different places.

Data set [1] can be described thus: Stability of BZE in matrices over pH. It is filed as physicochemical. The note with it: most matrices, broad range of pH values. An excerpt: Based on the above discussion, the stabilization of parent cocaine in a matrix such as oral fluid, which contains esterases possibly derived from crevicular fluid, is challenging unless appropriate buffering at a pH where parent cocaine is stable is employed.

For data set [2] the following is noted: tetrahydrate soluble in hot water; cited from earlier work.
Data set [3] is described as follows: Stability of parent THC spiked into neat human oral fluid, with or without the reagent component. It is filed as physicochemical.
For data set [4] the following is noted: oral fluid, over 14 days, cited from earlier work.
The nature of a further data set: pH of greatest stability. The note with it: parent THC by itself.
For data set [5] the following is noted: two collection devices, cited from earlier work.
For data set [6] the following is noted: aqueous solution (cocaine); labile esters (heroin, 6-AM); cited from earlier work.

Turning to `CN1[C@H]2CC[C@@H]1[C@@H](C(=O)O)[C@@H](OC(=O)c1ccccc1)C2` [BZE, benzoylecgonine], the stability result in data set [1] is given as “stable”. The “water solubility” value in data set [2] is “considerable water solubility”.

For the molecule `CCCCCc1cc(O)c2c(c1)OC(C)(C)[C@@H]1CCC(C)=C[C@@H]21` [THC, Δ^9-tetrahydrocannabinol], in data set [3], the “loss of THC” value is “substantial loss”. In addition, the “losses of THC” value is given as 20% in data set [4] (in the dark at room temperature) and “greater than 50%” in data set [4] (under fluorescent lights). Further, the “pH at which most stable” value in “pH of greatest stability” is given as around 7.5.

As for `COC(=O)[C@H]1[C@@H](OC(=O)c2ccccc2)C[C@@H]2CC[C@H]1N2C` [cocaine], the “cocaine degraded to BZE” value was 26% in data set [5] (within 48 hours) and 41% in data set [5] (within 72 hours). The “pH of greatest stability / stabilization” value in data set [6] is around 5.

As for `CC(=O)Oc1ccc2c3c1O[C@H]1[C@@H](OC(C)=O)C=C[C@H]4[C@@H](C2)N(C)CC[C@@]341` [heroin, diacetylmorphine], the “pH of greatest stability / stabilization” value in data set [6] is around 5.0.
